Measurements as given in ChEMBL document CHEMBL1157838, “Cryptosphaerolide, a cytotoxic Mcl-1 inhibitor from a marine-derived ascomycete related to the genus Cryptosphaeria” (J Nat Prod, 2010).

Experiments:
HCT-116 = assay: Cytotoxicity against human HCT116 cells after 72 hrs by MTS/PMS assay; type: functional, cell-based; settings: HCT-116, 72 h
[1] = biological target: Induced myeloid leukemia cell differentiation protein Mcl-1 (Homo sapiens, UniProt Q07820); assay: Inhibition of Mcl1 protein by Mcl1/Bak fluorescence resonance assay
Chain of Induced myeloid leukemia cell differentiation protein Mcl-1 (Q07820 whole entry): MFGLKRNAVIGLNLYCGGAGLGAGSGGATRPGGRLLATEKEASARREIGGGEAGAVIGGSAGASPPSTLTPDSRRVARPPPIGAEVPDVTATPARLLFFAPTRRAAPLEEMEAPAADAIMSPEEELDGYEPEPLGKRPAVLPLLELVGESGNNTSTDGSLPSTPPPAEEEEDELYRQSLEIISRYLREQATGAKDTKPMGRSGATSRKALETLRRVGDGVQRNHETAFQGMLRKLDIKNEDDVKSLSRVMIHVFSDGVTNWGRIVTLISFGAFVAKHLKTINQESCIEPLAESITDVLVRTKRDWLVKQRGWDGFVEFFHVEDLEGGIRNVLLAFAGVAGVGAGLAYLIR

Row | SMILES | IC50 (HCT-116) [µM] | IC50 [1] [µM]
1 | C=C1CO[C@@]2(O)[C@H]3O[C@]34[C@H](OC(=O)C(O)(CO)CC(C)CC(C)CC)CC[C@H](C)[C@@]4(C)C[C@@H]12 (stereo partly drawn) [CRYPTOSPHAEROLIDE] | 4.5 | 11.4
2 | C=C1CO[C@@]2(OC)[C@H]3O[C@]34[C@H](OC(=O)C(O)(CO)CC(C)CC(C)CC)CC[C@H](C)[C@@]4(C)C[C@@H]12 (stereo partly drawn) | – | 12.5
